Earlier results in patent US20240108043A1, “NONNUTRITIVE SWEETENER COMPOSITIONS, METHODS OF MANUFACTURE AND USES THEREOF” (priority 2022, published 2024).
Like-named read-outs stand apart in the source and are kept apart here.

Tests used:
[1] = for Sweetness intensity relative to sucrose: times the sweetness intensity of sucrose
[2] = diabetic human subjects, daily 20 g for 14 days
[3] = in vivo
[4] = tested on: TNF-Alpha and Interleukin 1-Beta; settings: concentration of 1 mM
[5] = 500 mg, two years, mild hypertension patients
[6] = not given; remark: listed apart in the source

O=C(CO)[C@H](O)[C@H](O)[C@H](O)CO [allulose, D-ribo-2-hexulose]
Sweetness intensity relative to sucrose [1]: approximately 0.7 times

OC[C@@H](O)[C@@H](O)CO [erythritol, (2R,3S)-Butan-1,2,3,4-tetrol]
Effect on blood glucose insulin [2]: no effect | Sweetness, as sweet as sucrose ([1]; percent of sucrose sweetness): 60-70% | Sweetness intensity relative to sucrose [1]: 0.6-0.7 times | Excreted through urine with molecular structure unchanged [3]: Approximately 90%

O=C(CO)[C@@H](O)[C@H](O)[C@H](O)CO [fructose, D-Fructose]
Sweetness intensity relative to sucrose [1]: approximately 1.7 times

OC[C@@H](O)[C@@H](O[C@@H]1O[C@H](CO)[C@H](O)[C@H](O)[C@H]1O)[C@H](O)[C@@H](O)CO [lactitol]
Incidence of gastrointestinal distress compared to equal doses of sucrose (doses of 30-40 grams): significantly (p<0.01) increased

OC[C@@H](O)[C@@H](O)[C@H](O)[C@H](O)CO [mannitol]
Dose causing laxative affects (single bolus): greater than 20 grams

OC[C@@H](O)[C@@H](O)[C@H](O)[C@@H](O)CO [sorbitol]
Dose at which laxative affect is seen (men): 170 mg/kg | Dose at which laxative affect is seen (women): 240 mg/kg

C=C1C[C@@]23CC[C@H]4[C@@](C)(CCC[C@@]4(C)C(=O)O)[C@@H]2CC[C@]1(O)C3 [steviol]
Endotoxin release of TNF-Alpha and Interleukin 1-Beta [4]: significantly suppressed

C=C1C[C@@]23CC[C@H]4[C@@](C)(CCC[C@@]4(C)C(=O)O[C@@H]4O[C@H](CO)[C@@H](O)[C@H](O)[C@H]4O)[C@@H]2CC[C@]1(O[C@@H]1O[C@H](CO)[C@@H](O)[C@H](O)[C@H]1O[C@@H]1O[C@H](CO)[C@@H](O)[C@H](O)[C@H]1O)C3 [stevioside]
Diastolic and systolic blood pressure [5]: significantly reduced | Blood glucose ([6]; 200 mg, sixty healthy volunteers): effectively reduce blood glucose | Postprandial blood glucose levels ([6]; 1 gram vs 1 gram maize starch, type-2 diabetes patients, 30 and 240 minutes after a meal): reduced postprandial blood glucose levels | Endotoxin release of TNF-Alpha and Interleukin 1-Beta [4]: significantly suppressed
